Measurements from ChEMBL document CHEMBL1138665, “Probing the activity differences of simple and complex brominated aryl compounds against 15-soybean, 15-human, and 12-human lipoxygenase” (J Med Chem, 2004).

What was measured:
[1] = molecular target: T1, Polyunsaturated fatty acid lipoxygenase ALOX15 (Homo sapiens, UniProt P16050); test: Inhibitory effect on human reticulocyte 15-lipoxygenase
T1 sequence (P16050 whole entry): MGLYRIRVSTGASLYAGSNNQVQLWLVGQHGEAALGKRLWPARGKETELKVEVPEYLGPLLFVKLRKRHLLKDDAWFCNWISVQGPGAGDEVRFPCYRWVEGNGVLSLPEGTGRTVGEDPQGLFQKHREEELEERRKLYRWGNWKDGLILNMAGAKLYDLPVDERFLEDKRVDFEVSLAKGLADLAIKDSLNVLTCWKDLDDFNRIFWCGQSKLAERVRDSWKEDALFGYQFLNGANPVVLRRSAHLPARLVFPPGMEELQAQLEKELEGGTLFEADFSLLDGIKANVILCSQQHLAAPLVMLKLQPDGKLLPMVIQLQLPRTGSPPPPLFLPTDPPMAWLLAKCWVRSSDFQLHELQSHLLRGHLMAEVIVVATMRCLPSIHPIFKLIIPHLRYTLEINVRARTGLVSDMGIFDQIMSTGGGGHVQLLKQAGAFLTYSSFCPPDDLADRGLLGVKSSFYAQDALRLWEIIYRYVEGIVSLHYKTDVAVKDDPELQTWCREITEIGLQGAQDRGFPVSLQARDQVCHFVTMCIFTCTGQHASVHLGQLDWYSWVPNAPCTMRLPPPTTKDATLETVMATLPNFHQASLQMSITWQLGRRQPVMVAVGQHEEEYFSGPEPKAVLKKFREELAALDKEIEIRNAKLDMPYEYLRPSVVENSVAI

[2] = Inhibitory effect on soybean 15-lipoxygenase; set-up: species or system Glycine max
[3] = molecular target: T2, Polyunsaturated fatty acid lipoxygenase ALOX12 (Homo sapiens, UniProt P18054); test: Inhibitory effect on human platelet 12-lipoxygenase
T2 sequence (P18054 whole entry): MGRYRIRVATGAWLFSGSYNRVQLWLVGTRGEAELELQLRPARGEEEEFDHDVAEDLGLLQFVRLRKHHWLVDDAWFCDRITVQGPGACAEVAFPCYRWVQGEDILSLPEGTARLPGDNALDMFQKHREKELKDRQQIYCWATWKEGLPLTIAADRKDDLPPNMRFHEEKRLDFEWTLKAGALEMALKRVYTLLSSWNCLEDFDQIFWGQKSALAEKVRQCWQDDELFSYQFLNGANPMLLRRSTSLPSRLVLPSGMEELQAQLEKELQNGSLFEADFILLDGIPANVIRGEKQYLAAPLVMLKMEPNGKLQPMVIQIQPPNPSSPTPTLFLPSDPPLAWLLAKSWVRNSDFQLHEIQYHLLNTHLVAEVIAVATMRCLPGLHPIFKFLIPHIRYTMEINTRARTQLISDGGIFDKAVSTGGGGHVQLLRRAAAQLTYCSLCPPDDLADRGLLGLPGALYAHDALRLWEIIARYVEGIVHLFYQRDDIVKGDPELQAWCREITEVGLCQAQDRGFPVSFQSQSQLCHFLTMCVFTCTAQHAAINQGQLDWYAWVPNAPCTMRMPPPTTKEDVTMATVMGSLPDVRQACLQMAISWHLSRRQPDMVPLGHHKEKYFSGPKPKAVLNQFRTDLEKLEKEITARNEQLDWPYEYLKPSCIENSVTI

Row | Compound | IC50 [1] [µM] | IC50 [2] [µM] | IC50 [3] [µM]
1 | Oc1c(Br)cccc1Br | > 100 | > 100 | > 100
2 | Oc1c(Br)cc(Br)cc1Oc1c(Br)cc(Br)c(Br)c1O | 2.2 | > 100 | 6.2
3 | Oc1c(Br)cc(Br)cc1Oc1c(O)c(Br)c(Br)c(Br)c1Br | 0.79 | > 100 | 0.41
4 | CC(C)(c1ccc(O)c(Br)c1)c1cc(Br)c(O)c(Br)c1 | 5 | > 100 | 7
5 | OCc1ccc(Br)cc1 | > 100 | > 100 | > 100
6 | CC(C)(c1cc(Br)c(O)c(Br)c1)c1cc(Br)c(O)c(Br)c1 | 4 | > 100 | 10
7 | Oc1cccc(Br)c1 | > 100 | > 100 | > 100
8 | CC(Cc1ccc(O)c(O)c1)[C@H](C)Cc1ccc(O)c(O)c1 (stereo not given in full) |  | 0.18 | 
9 | Oc1ccccc1Br | > 100 | > 100 | > 100
10 | Oc1c(Br)cc(Br)c(Br)c1Oc1ccc(Br)cc1Br | 5 | 9 | 6
11 | COc1cc(Br)cc(Br)c1Oc1cc(Br)cc(Br)c1O | 10 | > 100 | 12
12 | O=C(N/C=C/c1ccc(O)c(Br)c1)/C(Cc1cc(Br)c(O)c(Oc2c(Br)cc(C/C(=N\O)C(=O)NCCc3ccc(O)c(Br)c3)cc2Br)c1)=N/O | 2 | 59 | 0.4
13 | Oc1ccc(Br)cc1Br |  | > 100 | > 100
14 | CCOc1ccc(Br)cc1 | > 100 | > 100 | > 100
15 | Oc1ccc(Br)cc1Oc1c(O)ccc(Br)c1Br |  | > 100 | 47
16 | Oc1c(Br)c(Br)c(Br)c(Br)c1Oc1ccc(Br)cc1Br | 1.8 | 7 | 0.7
17 | Oc1ccc(Br)cc1 | 55 | 48 | > 100
18 | O=C1N/C=C/c2ccc(c(Br)c2)Oc2cc(cc(Br)c2O)CCNC(=O)/C(=N/O)Cc2ccc(c(Br)c2)Oc2cc(cc(Br)c2O)C/C1=N\O [BASTADIN 7] | 4 | 27 | 2.3
19 | Oc1cc(Br)c(Br)c2c1Oc1cc(Br)cc(Br)c1O2 [SPONGIADIOXIN A] |  | > 100 | 50
20 | Oc1cc(Br)cc2c1Oc1cc(Br)cc(Br)c1O2 [SPONGIADIOXIN C] | 0.8 | > 100 | 30
